Data taken from patent US6399629B1, “Efflux pump inhibitors” (priority 1998, dated 2002).

Test system: Pseudomonas aeruginosa PAM1001
Assay: checkerboard assay (broth microdilution): levofloxacin MIC in presence of efflux pump inhibitor
Assay type: cell-based
Summary of the method: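 Checkerboard broth microdilution in Mueller Hinton Broth against P. aeruginosa PAM1001 (5×10^5 CFU/mL, early-log inoculum), levofloxacin and efflux pump inhibitor (up to 40 μg/mL) diluted along crossing axes. Plates incubated 20 h at 35° C; growth read at 650 nm and visually. Potentiation scored as reduced levofloxacin MIC.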

SMILES	Levofloxacin MIC Against P. aerugiuosa PAM1001 in Presence of Efflux Pump Inhibitor (EPI), Minimum Inhibitory Concentration (EPI Conc. 0 μg/mL)	Levofloxacin MIC Against P. aerugiuosa PAM1001 in Presence of Efflux Pump Inhibitor (EPI), Minimum Inhibitory Concentration (EPI Conc. 0.625 μg/mL)	Levofloxacin MIC Against P. aerugiuosa PAM1001 in Presence of Efflux Pump Inhibitor (EPI), Minimum Inhibitory Concentration (EPI Conc. 1.25 μg/mL)	Levofloxacin MIC Against P. aerugiuosa PAM1001 in Presence of Efflux Pump Inhibitor (EPI), Minimum Inhibitory Concentration (EPI Conc. 2.5 μg/mL)	Levofloxacin MIC Against P. aerugiuosa PAM1001 in Presence of Efflux Pump Inhibitor (EPI), Minimum Inhibitory Concentration (EPI Conc. 5 μg/ mL)	Levofloxacin MIC Against P. aerugiuosa PAM1001 in Presence of Efflux Pump Inhibitor (EPI), Minimum Inhibitory Concentration (EPI Conc. 10 μg/mL)	Levofloxacin MIC Against P. aerugiuosa PAM1001 in Presence of Efflux Pump Inhibitor (EPI), Minimum Inhibitory Concentration (EPI Conc. 20 μg/mL)	Levofloxacin MIC Against P. aerugiuosa PAM1001 in Presence of Efflux Pump Inhibitor (EPI), Minimum Inhibitory Concentration (EPI Conc. 40 μg/mL)
NC[C@@H]1CN[C@@H](C(=O)N[C@H](CCc2ccccc2)C(=O)NCc2cnc3ccccc3c2)C1 [Compound M32]	4 µg/mL	4 µg/mL	4 µg/mL	4 µg/mL	2 µg/mL	1 µg/mL	0.25 µg/mL	0.25 µg/mL
CC(C)C[C@@H](NC(=O)[C@H]1C[C@H](CN)CN1)C(=O)Nc1cnc2ccccc2c1 [Compound M34, (2R,4R)-4-(Aminomethyl)-N-[(1R)-3-methyl-1-(3-quinolylcarbamoly)butyl]-2-pyrrolidinecarboxamide]	4 µg/mL	4 µg/mL	4 µg/mL	4 µg/mL	4 µg/mL	2 µg/mL	1 µg/mL	0.5 µg/mL
NC[C@@H]1CN[C@@H](C(=O)N[C@H](CCc2ccccc2)C(=O)Nc2cnc3ccc(F)cc3c2)C1 [Compound M35, (2R,4R)-4-(Aminomethyl)-N-[(1R)-3-pheyl-1-(6-fluoro-3-quinolylcarbamoyl)propyl]-2-pyrrolidinecarboxamide]	4 µg/mL	4 µg/mL	4 µg/mL	4 µg/mL	2 µg/mL	0.5 µg/mL	0.03 µg/mL	0.03 µg/mL
NC[C@@H]1CN[C@@H](C(=O)N[C@H](CCc2ccccc2)C(=O)Nc2cc(Cl)ccc2O)C1 [Compound M39, (2R,4R)-4-(Aminomethyl)-N-[(1R)-3-pheyl-1-(5-chloro-2-hydroxyphenylcarbamoyl)propyl]-2-pyrrolidinecarboxamide]	4 µg/mL	4 µg/mL	2 µg/mL	0.5 µg/mL	0.25 µg/mL	0.015 µg/mL	0.015 µg/mL	0.015 µg/mL
NCC(=O)N[C@@H]1CN[C@@H](C(=O)NC(Cc2ccccc2)C(=O)Nc2cnc3ccccc3c2)C1 (stereo partly drawn) [Compound M41, (2R,4S0-4-(2-Aminoacetamideo)-N-(2-phenylethyl)-N-(3-quinolylcarbamoyl)ethyl]-2-pyrrolidinecarboxamide]	4 µg/mL	4 µg/mL	2 µg/mL	2 µg/mL	0.25 µg/mL	0.008 µg/mL	0.008 µg/mL	0.008 µg/mL
NCC(=O)N[C@H]1CN[C@@H](C(=O)N(CCc2ccccc2)CC(=O)Nc2cnc3ccccc3c2)C1 [Compound M46]	4 µg/mL	4 µg/mL	4 µg/mL	4 µg/mL	4 µg/mL	4 µg/mL	1 µg/mL	0.5 µg/mL
C[C@@H](N)C(=O)N[C@@H]1CN[C@@H](C(=O)N(CCC(C)(C)C)CC(=O)Nc2cnc3ccccc3c2)C1 [Compound M47]	4 µg/mL	4 µg/mL	4 µg/mL	4 µg/mL	4 µg/mL	4 µg/mL	2 µg/mL	0.03 µg/mL
CC(C)C[C@H](COc1ccc2ccccc2c1)NC(=O)[C@H]1C[C@H](NC(=O)CN)CN1 [Compound M49, (2R,4S)-4-(2-Aminoacetamideo)-N-[(1R)-3-methyl-1-[(2-naphthyloxy)methyl]butyl]-2-pyrrolidinecarboxamide]	4 µg/mL	4 µg/mL	4 µg/mL	4 µg/mL	4 µg/mL	1 µg/mL	0.125 µg/mL	0.06 µg/mL
